Among the data in US9051271B2, “Substituted pyridine derivatives useful in the treatment of cancer” (United Arab Emirates University, priority 2012, dated 2015) are melting point and IC50 values, retold here.

Series [1] has as its system NCI-H460-Luc2 cells. The experiment in a line: Cell Titer-Glo Luminescent Cell Viability assay, lung cancer cells. The format is cell-based, Human. To be noted: death of 50% of the cells, half-maximal inhibition at 24 h. As to the method:
(§1) Human breast cancer cells MDA-MB-231 and colorectal cancer cells HT29, were maintained in DMEM medium (Invitrogen, Cergy Pontoise, France). Human lung cancer cells NCI-H460-Luc2 (Caliper Life Sciences, US) (NSCLC) were maintained in RPMI 1640 (Hyclone Thermo Scientific, MA United States). All media were supplemented with antibiotics (penicillin 50.00 U/ml; streptomycin […]) (Invitrogen, Cergy Pontoise, France) and 10.00% fetal bovine serum (FBS, Biowest, Nouaille, France).
(§2) Cells were seeded in 96-well plates at a density of 5,000 cells/well. After 24.00 hours of seeding, resultant cells' arrays were treated for 24.00-48.00 hours with increasing concentrations of the test compounds (5.00-100.00 μM), in triplicates. Control culture cells were treated with 0.10% DMSO.
(§3) The effect of the test compounds on cell viability was determined using a Cell Titer-Glo Luminescent Cell Viability assay (Promega Corporation, Madison, USA), based on quantification of ATP, which signals the presence of metabolically active cells. Luminescent signal was measured using GLOMAX Luminometer system. The data were presented as proportional viability (%) by comparing the treated group with the untreated cells, the viability of which is assumed to be 100%.
(§4) The effects of investigated compounds at concentrations 5.00-100.00 μM on MDA-MB-231, NCI-H460-Luc2 and HT29 cells were investigated after 24.00 and 48.00 hours exposures. […] Inhibition rates ranged between 50.00 and 98.00% were recorded for all compounds at 100.00 μM concentration. The IC50 is the concentration at which half-maximal inhibition occurs at 24 h. Approximate IC50 value of 100.00 μM was obtained after 24.00 hours.
(§5) Exponentially growing MDA-MB-231, NCI-H460-Luc2 and HT29 cells were treated with vehicle (0.10% DMSO) and the indicated concentrations of investigated compounds. Viable cells were assayed as described in Materials and Methods. Exposure times of 24.00 and 48.00 hours were applied. All experiments were repeated at least three times.

In series [2] the test system is HT29 cells. The experiment in a line: Cell Titer-Glo Luminescent Cell Viability assay, colorectal cancer cells. The class given is cell-based, Human. To be noted: death of 50% of the cells, half-maximal inhibition at 24 h, read-out: IC50 HT29 Colon Cancer. As to the method:
as §1, §2, §3, §4, §5
Background: In ATP-based viability assays light output follows the ATP content of the culture.

Series [3] deals with MDA-MB-231 cells. Description: Cell Titer-Glo Luminescent Cell Viability assay, breast cancer cells. The format is cell-based, Human. To be noted: half-maximal inhibition at 24 h. As to the method: as §1
Cells were seeded in 96-well plates at a density of 5,000 cells/well. […] Control culture cells were treated with 0.10% DMSO.
as §3
Inhibition rates ranged between 50.00 and 98.00% were recorded for all compounds at 100.00 μM concentration. The IC50 is the concentration at which half-maximal inhibition occurs at 24 h. Approximate IC50 value of 100.00 μM was obtained after 24.00 hours.
as §5

Like-named read-outs stand apart in the source and are kept apart here.

One may read the melting point as the temperature, or range, at which the solid turns liquid. `Cc1c(N=Nc2ccccc2F)c(-c2ccccc2)[nH]c(=O)c1C#N` [Id, 3-Cyano-4-methyl-6-phenyl-5-(2′-fluorophenylazo)-pyridine-2(1H)-one] returned a melting point of 225 °C.

In general, IC50 refers to the concentration that gives 50% inhibition. Consider `Cc1c(N=Nc2ccc([N+](=O)[O-])cc2)c(-c2ccccc2)[nH]c(=O)c1C#N` [Ih, 3-Cyano-4-methyl-6-phenyl-5-(4′-nitronthenylazo)-pyridine-2(1H)-one], for which the IC50 in series [1] worked out at 30.7 µM; in series [2], 29.9 µM; in series [3], 172 µM.

The compound `Cc1[nH]c(=O)c(C#N)c(C)c1N=Nc1cccc(C(F)(F)F)c1` [Ib, 3-Cyano-4,6-dimethyl-5-(3′-trifluoromethylphenylazo)-pyridine-2(1H)-one] gave a melting point of 265 °C. In series [3] (Homo sapiens, MDA-MB-231), it took 270 µM to reach half-maximal inhibition (IC50).

For `Cc1c(N=Nc2cccc(C(F)(F)F)c2)c(-c2ccccc2)[nH]c(=O)c1C#N` [Ie, 3-Cyano-4-methyl-6-phenyl-5-(3′-trifluoromethylphenylazo)-pyridine-2(1H)-one], the melting point turned out to be 237 °C. In series [1] (Homo sapiens), inhibition was half-maximal at 35.9 µM (IC50). Also, the IC50 in series [2] (Homo sapiens, HT-29) came out at 64.5 µM. Besides, in series [3] (Homo sapiens, MDA-MB-231), the IC50 came out at 90.5 µM.

The compound `Cc1[nH]c(=O)c(C#N)c(C)c1N=Nc1ccc(F)cc1` [Ic, 3-Cyano-4,6-dimethyl-5-(4′-fluorophenylazo)-pyridine-2(1H)-one] yielded a melting point of 272 °C. Half-maximal inhibition in series [3] (Homo sapiens, MDA-MB-231) (IC50) required 216 µM.

As to `Cc1c(N=Nc2ccc(F)cc2)c(-c2ccccc2)[nH]c(=O)c1C#N` [If, 3-Cyano-4-methyl-6-phenyl-5-(4′-fluorophenylazo)-pyridine-2(1H)-one], the melting point came to 252 °C. For the same compound, in series [1] (Homo sapiens), the midpoint of inhibition, the IC50, lay at 30 µM. Moreover, the IC50 in series [2] (Homo sapiens, HT-29) is 93.9 µM. 75.4 µM corresponded to half-maximal inhibition in series [3] (Homo sapiens, MDA-MB-231) (IC50).

Take `Cc1[nH]c(=O)c(C#N)c(C)c1N=Nc1ccc([N+](=O)[O-])cc1` [Compound Ig, 3-Cyano-4,6-dimethyl-5-(4′-nitrorthenylazo)-pyridine-2(1H)-one]: the IC50 is 29.8 µM in series [1], 39 µM in series [2] and 72.4 µM in series [3].

Regarding `Cc1[nH]c(=O)c(C#N)c(C)c1N=Nc1ccccc1F` [Ia, 3-Cyano-4,6-dimethyl-5-(2′-fluorophenylazo)-pyridine-2(1H)-one], the melting point is 257 °C. For the same compound, in series [3] (Homo sapiens, MDA-MB-231), half-maximal inhibition (IC50) was put at 483 µM.
